Consider 1 compound from patent EP0147851B1, “Water soluble forms of polyene antibiotics, and process for preparing them” (priority 1983, dated 1985).

Where two headings read alike, the source gives them in different places.

For series [1] the following is noted: per os; cited from earlier work.
Series [2] is described as follows: Dissolution of Nystatin complex and Nystatin base material in water at 37 °C. Type of series: physicochemical. As to conditions: destilliertes Wasser, after the first 5 Minuten. Here is the method:
Der auf die beschriebene Weise hergestellte Komplex zeigte bei den thermoanalytischen Untersuchungen im Vergleich zum Gemisch die gleichen Abweichungen wie der gemäß Beispiel 3 durch Lyophilisieren hergestellte Komplex. Die Löslichkeit von einer der Wirkstoffmenge von 10 mg/ml entsprechenden Menge Nystatin-γ-CD-Komplex und von Nystatingrundmaterial wurde in 15 ml destilliertem Wasser bei 37 °C untersucht. Die Lösungen wurden mit dem Magnetrührer bei einer Drehzahl von 150 min⁻¹ gerührt. Zu unterschiedlichen Zeitpunkten wurden Proben genommen, filtriert und spektrophotometrisch auf ihren Wirkstoffgehalt untersucht. Die Ergebnisse sind in der Tabelle 6 zusammengestellt.
Das Spektrum der von der wäßrigen Suspension des Nystatingrundmaterials genommenen Proben war nicht auswertbar. […] Zuerst deformierte sich das Maximum um 290 nm und verschwand dann ganz, und im Bereich geringerer Wellenlänge zeigten sich neue Maxima, was auf Schädigung des konjugierten Chromophorsystems schließen läßt.

Series [3] can be described thus: Blood level after subcutaneous administration (UV spectrum of serum). The note with it: subcutan, 200 mg/kg. Type of series: in vivo, CFY-Ratten. An excerpt: • a) Die Resorption von Nystatin aus per os verabreichtem Nystatin-γ-CD-Komplex Die Resorption des Wirkstoffes wurde an Mäusen, an einem durch intravenöse Applikation einer Suspension von Candida albicans hervorgerufenen Sepsismodell untersucht. Die Sepsis verursachte innerhalb von 2-3 Tagen 100 %ige Mortalität. Den Versuchstieren wurde per os gemäß Beispiel 3 hergestellte, 8 % Nystatin enthaltende Komplex verabreicht. In einem Parallelversuch wurde Nystatin intravenös appliziert. Für beide Gruppen wurde die auf die unbehandelte Kontrolle bezogene Verlängerung der Überlebensdauer ermittelt. [formula] Wenn man diejenigen in Form des Komplexes per os verabreichten Nystatindosen mit denjenigen i.v. applizierten Nystatindosen vergleicht, die eine etwa gleiche Verlängerung der Überlebensdauer bewirkten (Tabelle 9, letzte Spalte),so läßt sich errechnen, daß aus dem Komplex durchschnittlich 6,2 % des Wirkstoffes in die Blutbahn gelangten. Bei den höchsten Dosen (i.v. 1,56 mg/kg, p.o. 25 mg/kg) ist das Zurückfallen der Überlebensdauer bereits auf die schwache Toxizität des Nystatins zurückzuführen. • b) Die Resorption von Nystatin aus subcutan appliziertem Nystatin-γ-CD-Komplex Weibliche CFY-Ratten eines durchschnittlichen Gewichtes von 180 g wurden mit Nystatin, mit Nystatin-γ-CD-Komplex (Wirkstoffgehalt9 8 %) beziehungsweise mit γ-CD behandelt. […]

Series [4] relates to aus menschlichem Blut hergestellten Suspensionen roter Blutkörperchen. As to conditions: literature value; cited from earlier work.

For the compound `C[C@@H]1[C@H](O)[C@@H](C)/C=C/C=C/CC/C=C/C=C/C=C/C=C/C(O[C@H]2O[C@H](C)[C@@H](O)[C@H](N)[C@@H]2O)CC2O[C@](O)(CC(O)C(O)CCC(O)CC(O)CC(O)CC(=O)O[C@H]1C)CC(O)C2C(=O)O` (stereo partly shown) [Nystatin], the Blutspiegel result is on record as “überhaupt nicht meßbar” in series [1] and “nichts nachzuweisen” in series [3]. In addition, the “Zersetzung in aqueous suspension (UV spectrum)” value in series [2] is recorded as “fortschreitende Zersetzung”. For the same compound, the “EH₅₀ (concentration for 50 % haemolysis)” value in series [4] is 50 µg/mL.
